From PMC4850295, “Using a Genetically Encoded Sensor to Identify Inhibitors of Toxoplasma gondii Ca^2+ Signaling” (The Journal of Biological Chemistry, 2016)

These compounds were tested on T1, GCaMP5-expressing T. gondii. Conditions: 100 uM zaprinast stimulation; 10 min pretreatment; mean of two replicates; 0.23 h.
T1 construct: whole extracellular parasites expressing GCaMP5 Ca2+ sensor
Set-up: species or system GCaMP5-expressing Toxoplasma gondii, extracellular; GCaMP5 fluorescence (cytosolic Ca2+) after 100 uM zaprinast in compound-pretreated extracellular parasites, background-subtracted, relative to zaprinast alone
Summary of the method: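 Read-out is GCaMP5 calcium fluorescence (ex 485/em 525 nm) taken 4 min after 100 μM zaprinast at 37 °C, following 10 min compound pretreatment at 10 μM in duplicate biological replicates. Values are basal-subtracted fold change versus zaprinast-only controls; parasites held extracellular in Ringer's solution.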

Row | SMILES | fold change in fluorescence relative to zaprinast alone
1 | CSc1nccc(-c2c(-c3ccc(F)cc3)ncn2CCCN2CCOCC2)n1 [SB-217146-A] | 0.6021
2 | Fc1ccc(-c2nc[nH]c2-c2ccncc2)cc1 [SB-217360] | 0.1031
3 | FC(F)(F)c1ccc(-c2ncn(CCCN3CCOCC3)c2-c2ccncc2)cc1 [SB-217780] | 0.91
4 | CCOC(=O)N1CCC(n2cnc(-c3ccc(F)cc3)c2-c2ccnc(N)n2)CC1 [SB-219952] | 0.8316
5 | Nc1nccc(-c2c(-c3ccc(F)cc3)ncn2C2CCN(Cc3ccccc3)CC2)n1 [SB-219980] | 0.5084
6 | Nc1nccc(-c2c(-c3ccc(F)cc3)ncn2C2CCNCC2)n1 [SB-220025-R] | 1.112
7 | CC1(C)CC(n2cnc(-c3ccc(F)cc3)c2-c2ccnc(N)n2)CC(C)(C)N1 [SB-221466] | 1.33
8 | CNc1nccc(-c2c(-c3ccc(F)cc3)ncn2CCCN2CCOCC2)n1 [SB-222516] | 0.95
9 | Cc1cc(-c2c(-c3ccc(F)cc3)ncn2CCCN2CCOCC2)nc(N)n1 [SB-222517] | 1.044
10 | CNc1nccc(-c2c(-c3ccc(F)cc3)ncn2C2CCN(C)CC2)n1 [SB-222903] | 0.211
11 | CC(C)N1CCC(n2cnc(-c3ccc(F)cc3)c2-c2ccnc(N)n2)CC1 [SB-223132] | 0.4026
12 | Nc1nccc(-c2c(-c3ccc(F)cc3)ncn2C2CCC(O)CC2)n1 (stereo not drawn) [SB-223133] | 0.9972
13 | CCNc1nccc(-c2c(-c3ccc(F)cc3)ncn2C2CCN(C)CC2)n1 [SB-226605] | 0.6067
14 | CN1CCC(n2cnc(-c3ccc(F)cc3)c2-c2ccnc(NCCO)n2)CC1 [SB-226879] | 1.236
15 | CN1CCC(n2cnc(-c3ccc(F)cc3)c2-c2ccnc(NC3CCNCC3)n2)CC1 [SB-229482] | 0.6668
16 | Nc1nccc(-c2c(-c3ccc(F)cc3)ncn2C2CCN(CC(F)(F)F)CC2)n1 [SB-236560] | 0.7968
17 | CN1CCC(n2cnc(-c3ccc(F)cc3)c2-c2ccnc(Nc3ccccc3)n2)CC1 [SB-236687] | 1.382
18 | Fc1ccc(-c2ncn(C3CCNCC3)c2-c2ccnc(Nc3ccccc3)n2)cc1 [SB-238039-R] | 0.4937
19 | NC(=O)c1ccc(Oc2nccc(-c3c(-c4ccc(F)cc4)ncn3C3CCNCC3)n2)cc1 [SB-242718] | 1.27
20 | CCc1ccc(Oc2nccc(-c3c(-c4ccc(F)cc4)ncn3C3CCNCC3)n2)cc1 [SB-242719] | 1.455
21 | Fc1ccc(-c2ncn(C3CCNCC3)c2-c2ccnc(Oc3ccc(-c4ccccc4)cc3)n2)cc1 [SB-245391] | 1.215
22 | CCOc1nccc(-c2c(-c3ccc(F)cc3)ncn2C2CCNCC2)n1 [SB-249175] | 0.6135
23 | Fc1ccc(-c2ncn(C3CCNCC3)c2-c2ccnc(Oc3ccc4c(c3)OCO4)n2)cc1 [SB-250715] | 1.074
24 | Fc1ccc(-c2ncn(C3CCNCC3)c2-c2ccnc(Oc3ccc(F)c(F)c3)n2)cc1 [SB-253228] | 1.173

Row | SMILES | fold change in fluorescence relative to zaprinast alone
25 | NC(=O)Cc1ccccc1Oc1nccc(-c2c(-c3ccc(F)cc3)ncn2C2CCNCC2)n1 [SB-264865] | 1.313
26 | COc1nccc(-c2c(-c3ccc(F)cc3)ncn2CCCN2CCOCC2)n1 [SB-282852] | 0.8251
27 | CN1C(=O)C(Nc2ccccc2)=C(c2ccccc2)C1=O [SB-300079] | 0.899
28 | O=C1NC(=O)C(c2ccc(Cl)cc2)=C1Nc1cccc(Cl)c1 [SB-317651] | 0.9895
29 | CSc1ccc(NC2=C(c3ccc(Cl)cc3)C(=O)NC2=O)cc1 [SB-317658] | 0.971
30 | CN(C1=C(c2ccccc2)C(=O)NC1=O)c1ccccc1 [SB-334860] | 0.8099
31 | COc1cccc(C2=C(N(C)c3ccccc3)C(=O)NC2=O)c1 [SB-334865] | 0.953
32 | O=C1NC(=O)C(c2ccc(Cl)cc2)=C1Nc1ccc(O)cc1 [SB-340867] | 1.192
33 | COc1cccc(C2=C(Nc3cccc(Cl)c3)C(=O)NC2=O)c1 [SB-341556] | 1.087
34 | O=C1NC(=O)C(c2ccccc2Cl)=C1Nc1cccc(Cl)c1 [SB-342409] | 0.95
35 | CSc1ccc(NC2=C(c3ccccc3Cl)C(=O)NC2=O)cc1 [SB-342411] | 0.8828
36 | N#Cc1c(NC(=O)c2ccc(F)cc2)sc2c1CCCC2 [SB-347804] | 1.012
37 | COc1ccc(C2=C(N3CCc4ccccc43)C(=O)NC2=O)cc1 [SB-361058] | 1.153
38 | O=C1NC(=O)C(N2CCc3ccccc32)=C1c1ccccc1Cl [SB-373598] | 1.071
39 | COc1ccccc1C1=C(Nc2cccc(O)c2)C(=O)NC1=O [SB-381891] | 0.9532
40 | O=C1NC(=O)C(c2ccccc2Cl)=C1Nc1cccc(O)c1 [SB-390527] | 1.108
41 | O=C1NC(=O)C(c2ccccc2)=C1Nc1cccc(O)c1 [SB-390534] | 0.8317
42 | COc1ccc(C2=C(Nc3cccc(C(=O)O)c3)C(=O)NC2=O)cc1 [SB-390765] | 0.6431
43 | COc1ccc(C2=C(Nc3cccc(O)c3)C(=O)NC2=O)cc1 [SB-390766] | 1.133
44 | COc1cccc(C2=C(Nc3cc(Cl)c(O)c(Cl)c3)C(=O)NC2=O)c1 [SB-390767] | 1.06
45 | COc1cccc(C2=C(Nc3ccc(Cl)c(C(=O)O)c3)C(=O)NC2=O)c1 [SB-390769] | 1.176
46 | COc1cccc(C2=C(Nc3cccc(C(=O)O)c3)C(=O)NC2=O)c1 [SB-390770] | 0.98
47 | COc1cccc(C2=C(Nc3cccc(O)c3)C(=O)NC2=O)c1 [SB-390771] | 0.8334
48 | c1ccc(-c2nc3n(c2-c2ccc4c(c2)OCO4)CCC3)nc1 [SB-400868-A] | 0.8655

Row | SMILES | fold change in fluorescence relative to zaprinast alone
49 | CN1C(=O)C(Nc2ccc(Cl)c(C(=O)O)c2)=C(c2ccc(Cl)cc2)C1=O [SB-404290] | 0.783
50 | CN1C(=O)C(Nc2cc(Cl)c(O)c(Cl)c2)=C(c2ccc(Cl)cc2)C1=O [SB-404321] | 1.253
51 | O=C1NC(=O)C(N2CCc3ccccc32)=C1c1cccc(Cl)c1 [SB-408010] | 0.7986
52 | O=C1NC(=O)C(c2cccc(Cl)c2)=C1Nc1ccc(Cl)c(C(=O)O)c1 [SB-409513] | 1.123
53 | O=C1NC(=O)C(c2cccc(Cl)c2)=C1Nc1ccc(O)c(Cl)c1 [SB-409514] | 1.132
54 | Oc1ccc(-c2nc(-c3ccccc3)[nH]c2-c2ccncc2)cc1 [SB-428218-A] | 1.23
55 | OCc1ccc(-c2nc(-c3ccc4c(c3)OCO4)c(-c3ccccn3)[nH]2)cc1 [SB-431533] | 1.145
56 | NC(=O)c1ccc(-c2nc(-c3ccccn3)c(-c3ccc4c(c3)OCO4)[nH]2)cc1 [SB-431542-A] | 1.08
57 | COc1ccc2cc(-c3c(-c4ccncc4)nc(-c4ccc([S+](C)[O-])cc4)n3C)ccc2c1 (stereo not drawn) [SB-437013] | 1.038
58 | NCc1ccc(-c2nc(-c3ccc(Cl)c(O)c3)c(-c3ccncc3)[nH]2)cc1 [SB-476429-A] | 1.226
59 | Nc1[nH]nc2ncc(-c3ccccc3)cc12 [SB-517081] | 0.8708
60 | Nc1n[nH]c2nnc(-c3ccccc3)cc12 [SB-517389] | 1.055
61 | CC(=O)Nc1[nH]nc2ncc(-c3ccccc3)cc12 [SB-548492] | 1.137
62 | COc1ccc(-c2oc3ncnc(N)c3c2-c2ccc(OC)cc2)cc1 [SB-589132] | 1.026
63 | CCN(CC)CCOc1ccc(Nc2ncc3cc(-c4c(Cl)cccc4Cl)c(=O)n(C)c3n2)cc1 [SB-601273] | 0.7002
64 | CCCC(=O)Nc1[nH]nc2ncccc12 [SB-601436] | 0.9225
65 | COc1cccc(-c2nc(-c3ccccc3)[nH]c2-c2ccncc2)c1 [SB-610250] | 0.7579
66 | Oc1cccc(-c2nc(-c3ccccc3)[nH]c2-c2ccncc2)c1 [SB-610251-B] | 1.022
67 | ON=C1CCc2cc(-c3nc(C4CCNCC4)[nH]c3-c3ccncc3)ccc21 [SB-614067-R] | 1.048
68 | COc1ccc2cc(-c3c(-c4ccncc4)nc(-c4ccc(SC)cc4C)n3C)ccc2c1 [SB-625086-M] | 0.941
69 | CN(C)CCCC(=O)Nc1n[nH]c2nnc(-c3ccccc3)cc12 [SB-627772-A] | 1.028
70 | COc1ccc2cc(-c3c(-c4ccncc4)nc(-c4ccc([S+](C)[O-])cc4C)n3C)ccc2c1 (stereo not drawn) [SB-630812] | 1.111
71 | COc1ccc2cc(-c3c(-c4ccncc4)nc(-c4ccc(S(C)(=O)=O)cc4C)n3C)ccc2c1 [SB-633825] | 0.9532
72 | CCCC(=O)Nc1[nH]nc2ncc(-c3cccc4ccccc34)cc12 [SB-642057] | 0.9221
